The values below come from patent publication US12351580B2, “NLRP3 modulators” (Innate Tumor Immunity, Inc., priority 2017, dated 2025).

The target in this experiment is T1, TLR8 (Homo sapiens, UniProt Q9NR97).
T1 construct: host or cells: HEK-Blue cells (human HEK) co-expressing TLR8 and an NF-kB/AP1-inducible SEAP reporter
T1 sequence (Q9NR97 27-1041): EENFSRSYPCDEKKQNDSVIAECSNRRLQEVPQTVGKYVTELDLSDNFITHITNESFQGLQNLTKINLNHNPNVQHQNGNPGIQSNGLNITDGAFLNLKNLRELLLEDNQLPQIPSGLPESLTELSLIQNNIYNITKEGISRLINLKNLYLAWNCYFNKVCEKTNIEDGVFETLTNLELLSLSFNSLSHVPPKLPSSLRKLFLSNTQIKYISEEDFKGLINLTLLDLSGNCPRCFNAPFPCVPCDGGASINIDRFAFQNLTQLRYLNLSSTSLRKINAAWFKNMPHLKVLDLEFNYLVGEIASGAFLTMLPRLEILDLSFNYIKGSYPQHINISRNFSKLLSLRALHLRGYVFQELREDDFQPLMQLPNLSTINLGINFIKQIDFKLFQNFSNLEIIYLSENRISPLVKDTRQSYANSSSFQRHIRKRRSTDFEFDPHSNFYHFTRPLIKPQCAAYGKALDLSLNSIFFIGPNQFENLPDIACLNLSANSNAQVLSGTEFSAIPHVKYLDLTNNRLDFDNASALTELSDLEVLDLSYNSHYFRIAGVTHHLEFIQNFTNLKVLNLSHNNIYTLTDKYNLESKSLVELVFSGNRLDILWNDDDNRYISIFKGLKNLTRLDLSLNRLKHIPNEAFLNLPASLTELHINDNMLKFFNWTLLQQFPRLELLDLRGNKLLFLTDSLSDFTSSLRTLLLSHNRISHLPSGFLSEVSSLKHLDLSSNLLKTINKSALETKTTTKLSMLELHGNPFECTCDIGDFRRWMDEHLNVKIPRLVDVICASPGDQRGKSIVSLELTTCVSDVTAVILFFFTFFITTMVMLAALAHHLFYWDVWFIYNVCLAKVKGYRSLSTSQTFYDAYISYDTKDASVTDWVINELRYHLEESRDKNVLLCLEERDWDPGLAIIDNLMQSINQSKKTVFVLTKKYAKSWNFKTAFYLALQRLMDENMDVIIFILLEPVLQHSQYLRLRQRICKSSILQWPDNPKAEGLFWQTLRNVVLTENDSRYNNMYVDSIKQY
The experiment is described as follows: In vitro human TLR8 binding reporter assay (HEK-Blue, NF-kB/AP1-inducible SEAP). It counts as cell-based. To be noted: activity range symbols. The procedure: In Vitro Human TLR7 and TLR8 Binding Reporter Assays
Logarithmically-growing human HEK-Blue cells co-expressing a TLR7 or TLR8 gene and a NF-kB/AP1-inducible SEAP (secreted embryonic alkaline phosphatase; Invivogen, San Diego, CA) reporter gene are added to individual wells of a 384-well plate (15,000 cells per 20 μL per well) and maintained for 24 h at 37° C., 5% CO2. Test compounds or DMSO are distributed to separate wells the next day using acoustic liquid handling technology (100 nL per well) and cells are subsequently incubated for 18 h at 37° C., 5% CO2. Cellular SEAP production is measured using an Envision plate reader instrument thirty minutes after adding freshly-made Quanti-Blue reagent (prepared by following manufacturer instructions; Invivogen, San Diego, CA) to the HEK-Blue TLR Nf-kB-SEAP cell reactions. All EC50 values (half-maximal effective concentration) are determined using proprietary data analysis software.
For orientation: Reporter assays use an easily measured gene product as a stand-in for the process of interest.
A word on the EC50: it is the concentration giving half of the maximal effect. The low end stands for greater potency, the high end for weaker potency. With `CCN(Cc1nc2c(N)nc3ccccc3c2n1CCC(=O)N1CCN(C(=O)OC(C)(C)C)CC1)C(=O)OC(C)(C)C` [Compound 211], the concentration giving a half-maximal response (EC50) was > 100 µM. `CCN(Cc1nc2c(N)nc3ccccc3c2n1CCC(=O)N1CCN(C(=O)OC(C)(C)C)CC1)C(C)=O` [Compound 212]: the EC50 is > 100 µM. As for `CCN(Cc1nc2c(N)nc3cc(Br)ccc3c2n1CCCC(=O)N(C)C)C(C)=O` [Compound 213], the 50% effective concentration (EC50) was > 100 µM. In the case of `CCN(Cc1nc2c(N)nc3cc(Br)ccc3c2n1CCCC(=O)N1CCOCC1)C(C)=O` [Compound 214], the EC50 is > 100 µM. Consider `CN(C)C(=O)CCCn1c(CN2CCCC2=O)nc2c(N)nc3cc(Br)ccc3c21` [Compound 215], for which the half-maximal effective concentration (EC50) is > 100 µM. For `COC(=O)CCCn1c(CN2CCCC2=O)nc2c(N)nc3cc(Cl)ccc3c21` [Compound 216], the concentration for a half-maximal effect (EC50) was > 100 µM.

On to `CCN(Cc1nc2c(N)nc3cc(Cl)ccc3c2n1CCCC(=O)NC)C(C)=O` [Compound 217], for which the EC50 is > 100 µM. With `CCN(Cc1nc2c(N)nc3cc(Br)ccc3c2n1CCCC(=O)OC)C(C)=O` [Compound 218] the figure was > 100 µM. Take `CCN(Cc1nc2c(N)nc3cc(Cl)ccc3c2n1CCCC(=O)OC)C(C)=O` [Compound 219]: the 50% effective concentration (EC50) is > 100 µM. For `CCN(Cc1nc2c(N)nc3cc(Cl)ccc3c2n1CCCC(=O)N1CCOCC1)C(C)=O` [Compound 220] the value was > 100 µM; for `CCN(Cc1nc2c(N)nc3cc(Cl)ccc3c2n1CCCC(=O)N1CCN(C)CC1)C(C)=O` [Compound 221], > 100 µM.

`CCN(Cc1nc2c(N)nc3cc(Cl)ccc3c2n1CCCC(=O)N1CCCC1)C(C)=O` [Compound 222]: the EC50 was > 100 µM. Regarding `CCN(Cc1nc2c(N)nc3ccccc3c2n1CCC(=O)N1CCS(=O)(=O)CC1)C(=O)OC(C)(C)C` [Compound 223], the concentration giving a half-maximal response (EC50) was > 100 µM. For `CCNCc1nc2c(N)nc3cc(Br)ccc3c2[nH]1` [Compound 225] the value was 1 to 20 µM; for `CCN(Cc1nc2c(N)nc3cc(C(F)(F)F)ccc3c2n1CCCC(=O)NC)C(=O)OC(C)(C)C` [Compound 226], > 100 µM. Consider `CCNCc1nc2c(N)nc3cc(C(F)(F)F)ccc3c2n1CCCC(=O)OC` [Compound 227], for which the EC50 is > 100 µM. For the compound `CCN(Cc1nc2c(N)nc3cc(C(F)(F)F)ccc3c2n1CCCC(=O)N1CCOCC1)C(=O)OC(C)(C)C` [Compound 228], the half-maximal effective concentration (EC50) was > 100 µM. For `CCN(Cc1nc2c(N)nc3cc(C(F)(F)F)ccc3c2n1CCCC(=O)OC)C(C)=O` [Compound 229] the value was > 100 µM; for `COc1ccc(-c2ccc3c(c2)nc(N)c2nc(CN4CCCC4=O)[nH]c23)cc1` [Compound 230], > 100 µM; for `CC(=O)NCc1nc2c(N)nc3ccccc3c2[nH]1` [Compound 233], > 100 µM. Take `Nc1nc2ccccc2c2[nH]c(CN3CCCC3=O)nc12` [Compound 278]: the EC50 is > 100 µM. As to `Nc1nc2cc(-c3cccnc3)ccc2c2[nH]c(CN3CCCC3=O)nc12` [Compound 279, 1-[(4-amino-7-pyridin-3-yl-1H-imidazo[4,5-c]quinolin-2-yl)methyl]pyrrolidin-2-one], the concentration giving a half-maximal response (EC50) is > 100 µM. In the case of `Nc1nc2cc(-c3ccccc3)ccc2c2[nH]c(CN3CCCC3=O)nc12` [Compound 280, 1-[(4-amino-7-phenyl-1H-imidazo[4,5-c]quinolin-2-yl)methyl]pyrrolidin-2-one], the EC50 was > 100 µM.

`Nc1nc2cc(-c3ccccc3Cl)ccc2c2[nH]c(CN3CCCC3=O)nc12` [Compound 281, 1-[[4-amino-7-(2-chlorophenyl)-1H-imidazo[4,5-c]quinolin-2-yl]methyl]pyrrolidin-2-one]: the concentration for a half-maximal effect (EC50) was > 100 µM. Take `Cc1ccccc1-c1ccc2c(c1)nc(N)c1nc(CN3CCCC3=O)[nH]c12` [Compound 282, 1-[[4-amino-7-(2-methylphenyl)-1H-imidazo[4,5-c]quinolin-2-yl]methyl]pyrrolidin-2-one]: the concentration for a half-maximal effect (EC50) was > 100 µM.

Take `COc1ccccc1-c1ccc2c(c1)nc(N)c1nc(CN3CCCC3=O)[nH]c12` [Compound 283, 1-[[4-amino-7-(2-methoxyphenyl)-1H-imidazo[4,5-c]quinolin-2-yl]methyl]pyrrolidin-2-one]: the half-maximal effective concentration (EC50) was > 100 µM.

Turning to `Nc1nc2cc(-c3ccccc3F)ccc2c2[nH]c(CN3CCCC3=O)nc12` [Compound 284, 1-[[4-amino-7-(2-fluorophenyl)-1H-imidazo[4,5-c]quinolin-2-yl]methyl]pyrrolidin-2-one], the EC50 is > 100 µM. Take `Nc1nc2cc(-c3cccc(Cl)c3)ccc2c2[nH]c(CN3CCCC3=O)nc12` [Compound 285, 1-[[4-amino-7-(3-chlorophenyl)-1H-imidazo[4,5-c]quinolin-2-yl]methyl]pyrrolidin-2-one]: the EC50 is > 100 µM. With `Cc1cccc(-c2ccc3c(c2)nc(N)c2nc(CN4CCCC4=O)[nH]c23)c1` [Compound 286, 1-[[4-amino-7-(3-methylphenyl)-1H-imidazo[4,5-c]quinolin-2-yl]methyl]pyrrolidin-2-one] the figure was > 100 µM; with `COc1cccc(-c2ccc3c(c2)nc(N)c2nc(CN4CCCC4=O)[nH]c23)c1` [Compound 287, 1-[[4-amino-7-(3-methoxyphenyl)-1H-imidazo[4,5-c]quinolin-2-yl]methyl]pyrrolidin-2-one], > 100 µM; with `N#Cc1cccc(-c2ccc3c(c2)nc(N)c2nc(CN4CCCC4=O)[nH]c23)c1` [Compound 288, 3-[4-amino-2-[(2-oxopyrrolidin-l-yl)methyl]-1H-imidazo[4,5-c]quinolin-7-yl]benzonitrile], > 100 µM. With `Nc1nc2cc(-c3cccc(F)c3)ccc2c2[nH]c(CN3CCCC3=O)nc12` [Compound 289, 1-[[4-amino-7-(3-fluorophenyl)-1H-imidazo[4,5-c]quinolin-2-yl]methyl]pyrrolidin-2-one] the figure was > 100 µM; with `Cc1ccc(-c2ccc3c(c2)nc(N)c2nc(CN4CCCC4=O)[nH]c23)cc1` [Compound 291, 1-[[4-amino-7-(4-methylphenyl)-1H-imidazo[4,5-c]quinolin-2-yl]methyl]pyrrolidin-2-one], > 100 µM; with `Nc1nc2cc(Br)ccc2c2[nH]c(CN3CCCC3=O)nc12` [Compound 294, 1-[(4-amino-7-bromo-1H-imidazo[4,5-c]quinolin-2-yl)methyl]pyrrolidin-2-one], > 100 µM. With `Nc1nc2cc(-n3cccn3)ccc2c2[nH]c(CN3CCCC3=O)nc12` [Compound 295, 1-[(4-amino-7-pyrazol-1-yl-1H-imidazo[4,5-c]quinolin-2-yl)methyl]pyrrolidin-2-one], the EC50 was > 100 µM. Take `Cc1cnn(-c2ccc3c(c2)nc(N)c2nc(CN4CCCC4=O)[nH]c23)c1` [Compound 296, 1-[[4-amino-7-(4-methylpyrazol-1-yl)-1H-imidazo[4,5-c]quinolin-2-yl]methyl]pyrrolidin-2-one]: the EC50 is > 100 µM.

Consider `Nc1nc2cc(C3CCOCC3)ccc2c2[nH]c(CN3CCCC3=O)nc12` [Compound 298, 1-[[4-amino-7-(oxan-4-yl)-1H-imidazo[4,5-c]quinolin-2-yl]methyl]pyrrolidin-2-one], for which the EC50 was > 100 µM. Consider `Cc1ccn(-c2ccc3c(c2)nc(N)c2nc(CN4CCCC4=O)[nH]c23)n1` [Compound 301, 1-[[4-amino-7-(3-methylpyrazol-1-yl)-1H-imidazo[4,5-c]quinolin-2-yl]methyl]pyrrolidin-2-one], for which the EC50 is > 100 µM. Take `Nc1nc2cc(C3CCCCC3)ccc2c2[nH]c(CN3CCCC3=O)nc12` [Compound 302, 1-[(4-amino-7-cyclohexyl-1H-imidazo[4,5-c]quinolin-2-yl)methyl]pyrrolidin-2-one]: the EC50 was > 100 µM. In turn, `CC(c1nc2c(N)nc3cc(Br)ccc3c2[nH]1)N1CCCC1=O` (stereo not shown) [Compound 303, 1-[1-(4-amino-7-bromo-1H-imidazo[4,5-c]quinolin-2-yl)ethyl]pyrrolidin-2-one] returned an EC50 of 20 to 100 µM.
